# Like-named read-outs stand apart in the source and are kept apart here.
# How the values were obtained:
# M. tuberculosis ATCC = assay: MIC against M. tuberculosis strains, agar dilution; type: cell-based, Mycobacterium tuberculosis; conditions: S. No. 01.Mt-, Middle Brook 7H10 + OADC, 37° C., 14-21 days
# M. avium ATCC 49601 = assay: MIC against MAC strains, agar dilution; type: cell-based, Mycobacterium avium; conditions: S. No. 01 Ma-1, M. avium ATCC 49601, Middle Brook 7H10 + OADC, 37° C., 14-21 days
# [1] = tested on: M. avium intracellulare 540/96; assay: MIC against MAC strains, agar dilution; type: cell-based; conditions: S. No. 12 Mai-4, M. avium intracellulare 540/96, Middle Brook 7H10 + OADC, 37° C., 14-21 days
# M. tuberculosis SGPGI = assay: MIC against M. tuberculosis strains, agar dilution; type: cell-based, Mycobacterium tuberculosis; conditions: S. No. 05 Mt-, Middle Brook 7H10 + OADC, 37° C., 14-21 days
# M. tuberculosis PC [2] = assay: MIC against M. tuberculosis strains, agar dilution; type: cell-based, Mycobacterium tuberculosis; conditions: S. No. 16 Mt-, Middle Brook 7H10 + OADC, 37° C., 14-21 days
# [3] = tested on: M. avium intracellulare 19/97; assay: MIC against MAC strains, agar dilution; type: cell-based; conditions: S. No. 17 Mai-10, M. avium intracellulare 19/97, Middle Brook 7H10 + OADC, 37° C., 14-21 days
# M. tuberculosis PC [4] = assay: MIC against M. tuberculosis strains, agar dilution; type: cell-based, Mycobacterium tuberculosis; conditions: S. No. 19 Mt-, Middle Brook 7H10 + OADC, 37° C., 14-21 days
# M. tuberculosis PC 4782 = assay: MIC against M. tuberculosis strains, agar dilution; type: cell-based, Mycobacterium tuberculosis; conditions: Middle Brook 7H10 + OADC, 37° C., 14-21 days
# M. tuberculosis H37Rv = assay: MIC against M. tuberculosis strains, agar dilution; type: cell-based, Mycobacterium tuberculosis; conditions: S. No. 04 Mt-, Middle Brook 7H10 + OADC, 37° C., 14-21 days
# M. tuberculosis PC [5] = assay: MIC against M. tuberculosis strains, agar dilution; type: cell-based, Mycobacterium tuberculosis; conditions: S. No. 22 Mt-, Middle Brook 7H10 + OADC, 37° C., 14-21 days
# M. tuberculosis 50 = assay: MIC against M. tuberculosis strains, agar dilution; type: cell-based, Mycobacterium tuberculosis; conditions: S. No. 12 Mt-, Middle Brook 7H10 + OADC, 37° C., 14-21 days
# [6] = tested on: M. avium intracellulare 559/97; assay: MIC against MAC strains, agar dilution; type: cell-based; conditions: S. No. 15 Mai-7, M. avium intracellulare 559/97, Middle Brook 7H10 + OADC, 37° C., 14-21 days
# M. tuberculosis V-591 = assay: MIC against M. tuberculosis strains, agar dilution; type: cell-based, Mycobacterium tuberculosis; conditions: Middle Brook 7H10 + OADC, 37° C., 14-21 days
# [7] = tested on: M. intracellulare ATCC 35761; assay: MIC against MAC strains, agar dilution; type: cell-based; conditions: S. No. 07 Mi-2, M. intracellulare ATCC 35761, Middle Brook 7H10 + OADC, 37° C., 14-21 days
# [8] = tested on: M. intracellulare ATCC 13950; assay: MIC against MAC strains, agar dilution; type: cell-based; conditions: S. No. 06 Mi-1, M. intracellulare ATCC 13950, Middle Brook 7H10 + OADC, 37° C., 14-21 days
# M. tuberculosis 35801 = assay: MIC against M. tuberculosis strains, agar dilution; type: cell-based, Mycobacterium tuberculosis; conditions: S. No. 02 Mt-, Middle Brook 7H10 + OADC, 37° C., 14-21 days
# [9] = tested on: M. avium intracellulare 1211/96; assay: MIC against MAC strains, agar dilution; type: cell-based; conditions: S. No. 13 Mai-5, M. avium intracellulare 1211/96, Middle Brook 7H10 + OADC, 37° C., 14-21 days
# H. influenzae P318 = assay: MIC against Haemophilus strains; type: cell-based; conditions: Haemophilus influenzae; s. No. 10, H. influenzae P318; read-out: MIC
# H. influenzae 35056 = assay: MIC against Haemophilus strains; type: cell-based; conditions: Haemophilus influenzae; s. No. 1, H. influenzae 35056; read-out: MIC
# H. influenzae 1381 = assay: MIC against Haemophilus strains; type: cell-based; conditions: Haemophilus influenzae; s. No. 7, H. influenzae 1381; read-out: MIC
# S. warnerii ST360 = assay: MIC, agar incorporation method; type: cell-based
# E. faecalis 5B (VRE) = assay: MIC, agar incorporation method; type: cell-based; conditions: Enterococcus faecalis; S. No. 19, E. faecalis 5B (VRE); read-out: MIC
# H. influenzae βIac = assay: MIC against Haemophilus strains; type: cell-based; conditions: Haemophilus influenzae; s. No. 3, H. influenzae βIac; read-out: MIC
# H. influenzae 451 = assay: MIC against Haemophilus strains; type: cell-based; conditions: Haemophilus influenzae; s. No. 8, H. influenzae 451; read-out: MIC
# Moraxella M6 = assay: MIC, agar incorporation method; type: cell-based; conditions: S. No. 60, Moraxella M6; read-out: MIC
# H. influenzae 49766 = assay: MIC against Haemophilus strains; type: cell-based; conditions: Haemophilus influenzae; s. No. 6, H. influenzae 49766; read-out: MIC
# [10] = Mycobacterium tuberculosis, read-out: MIC
# [11] = Mycobacterium avium, read-out: MIC
structure (smiles),measurement,setting,value
CC[C@H]1OC(=O)[C@H](C)[C@@H](O[C@H]2C[C@@](C)(OC)[C@@H](O)[C@H](C)O2)[C@H](C)[C@@H](O[C@@H]2O[C@H](C)C[C@H](N(C)C)[C@H]2O)[C@](C)(OC)C[C@@H](C)C(=O)[C@H](C)[C@@H](O)[C@]1(C)O [CLA],MIC,M. tuberculosis ATCC,32 µg/mL
same,MIC,M. avium ATCC 49601,<0.25 µg/mL
same,MIC,[1],>32 µg/mL
same,MIC,M. tuberculosis SGPGI,8.0 µg/mL
same,MIC,M. tuberculosis PC [2],8.0 µg/mL
same,MIC,[3],32 µg/mL
same,MIC,M. tuberculosis PC [4],8.0 µg/mL
same,MIC,M. tuberculosis PC 4782; S. No. 21 Mt-,16 µg/mL
same,MIC,M. tuberculosis H37Rv,32 µg/mL
same,MIC,M. tuberculosis PC [5],8.0 µg/mL
same,MIC,M. tuberculosis 50,16 µg/mL
same,MIC,[6],32 µg/mL
same,MIC,M. tuberculosis V-591; S. No. 13 Mt-,32 µg/mL
same,MIC,[7],0.5 µg/mL
same,MIC,[8],2.0 µg/mL
same,MIC,M. tuberculosis 35801,>32 µg/mL
same,MIC,[9],0.25 µg/mL
"CC(=O)NC[C@H]1CN(c2ccc(N3CCN(c4ccc([N+](=O)[O-])s4)CC3)c(F)c2)C(=O)O1 [Compound No. 1, (S)—N-[[3-[3-Fluoro-4-[4-(5-nitro-2-thienyl)-1-piperazinyl]phenyl]-2-oxo-5-oxazolidinyl]methyl]acetamide]",MIC,M. tuberculosis ATCC; [10],≤ 0.125 µg/mL
same,MIC,H. influenzae P318,16 µg/mL
same,MIC,"M. avium ATCC 49601; Mycobacterium avium, ATCC49601, read-out: MIC",< 0.125 µg/mL
same,MIC,[1]; [11],1 µg/mL
same,MIC,M. tuberculosis SGPGI; [10],0.25 µg/mL
same,MIC,H. influenzae 35056,8 µg/mL
same,MIC,H. influenzae 1381,8 µg/mL
same,MIC,M. tuberculosis PC [2]; [10],0.25 µg/mL
same,MIC,S. warnerii ST360,0.125 µg/mL
same,MIC,[3]; [11],0.25 µg/mL
same,MIC,M. tuberculosis PC [4]; [10],≤ 0.125 µg/mL
same,MIC,"M. tuberculosis PC 4782; Mycobacterium tuberculosis, PC4782, S. No. 21 Mt-, read-out: MIC",0.125 µg/mL
same,MIC,E. faecalis 5B (VRE),0.25 µg/mL
same,MIC,H. influenzae βIac,8 µg/mL
same,MIC,M. tuberculosis PC [5]; [10],0.5 µg/mL
same,MIC,H. influenzae 451,16 µg/mL
same,MIC,M. tuberculosis 50; [10],2 µg/mL
same,MIC,[6]; [11],0.25 µg/mL
same,MIC,"M. tuberculosis V-591; Mycobacterium tuberculosis, V591, S. No. 13 Mt-, read-out: MIC",0.5 µg/mL
same,MIC,"[7]; Mycobacterium intracellulare, ATCC35761, read-out: MIC",< 0.12 µg/mL
same,MIC,"[8]; Mycobacterium intracellulare, ATCC13950, read-out: MIC",16 µg/mL
same,MIC,Moraxella M6,0.25 µg/mL
same,MIC,M. tuberculosis 35801; [10],≤ 0.125 µg/mL
same,MIC,H. influenzae 49766,8 µg/mL
same,MIC,[9]; [11],8 µg/mL
CCc1cc(C(N)=S)ccn1 [ETH],MIC,M. tuberculosis ATCC,2.0 µg/mL
same,MIC,M. avium ATCC 49601,4.0 µg/mL
same,MIC,[1],32 µg/mL
same,MIC,M. tuberculosis SGPGI,4.0 µg/mL
same,MIC,M. tuberculosis PC [2],32 µg/mL
same,MIC,[3],16 µg/mL
same,MIC,M. tuberculosis PC [4],1.0 µg/mL
same,MIC,M. tuberculosis PC 4782; S. No. 21 Mt-,1.0 µg/mL
same,MIC,M. tuberculosis H37Rv,≦0.125 μg/ml
same,MIC,M. tuberculosis PC [5],>32 µg/mL
same,MIC,M. tuberculosis 50,32 µg/mL
same,MIC,[6],>32 µg/mL
same,MIC,M. tuberculosis V-591; S. No. 13 Mt-,>32 µg/mL
same,MIC,[7],>32 µg/mL
same,MIC,[8],0.5 µg/mL
same,MIC,M. tuberculosis 35801,2.0 µg/mL
same,MIC,[9],1.0 µg/mL
NNC(=O)c1ccncc1 [INH],MIC,M. tuberculosis ATCC,0.125 µg/mL
same,MIC,M. avium ATCC 49601,>32 µg/mL
same,MIC,[1],4.0 µg/mL
same,MIC,M. tuberculosis SGPGI,1.0 µg/mL
same,MIC,M. tuberculosis PC [2],8.0 µg/mL
same,MIC,[3],32 µg/mL
same,MIC,M. tuberculosis PC [4],0.25 µg/mL
same,MIC,M. tuberculosis PC 4782; S. No. 21 Mt-,0.25 µg/mL
same,MIC,M. tuberculosis H37Rv,0.125 µg/mL
same,MIC,M. tuberculosis PC [5],>32 µg/mL
same,MIC,M. tuberculosis 50,>32 µg/mL
same,MIC,[6],>32 µg/mL
same,MIC,M. tuberculosis V-591; S. No. 13 Mt-,>32 µg/mL
same,MIC,[7],4.0 µg/mL
same,MIC,[8],>32 µg/mL
same,MIC,M. tuberculosis 35801,0.06 µg/mL
same,MIC,[9],32 µg/mL
CO[C@H]1/C=C/O[C@@]2(C)Oc3c(C)c(O)c4c(O)c(c(/C=N/N5CCN(C)CC5)c(O)c4c3C2=O)NC(=O)/C(C)=C\C=C\[C@H](C)[C@H](O)[C@@H](C)[C@@H](O)[C@@H](C)[C@H](OC(C)=O)[C@@H]1C [RIF],MIC,M. tuberculosis ATCC,0.25 µg/mL
same,MIC,M. avium ATCC 49601,<0.03 µg/mL
same,MIC,[1],>32 µg/mL
same,MIC,M. tuberculosis SGPGI,16 µg/mL
same,MIC,M. tuberculosis PC [2],4.0 µg/mL
same,MIC,[3],>32 µg/mL
same,MIC,M. tuberculosis PC [4],0.06 µg/mL
same,MIC,M. tuberculosis PC 4782; S. No. 21 Mt-,0.06 µg/mL
same,MIC,M. tuberculosis H37Rv,0.25 µg/mL
same,MIC,M. tuberculosis PC [5],2.0 µg/mL
same,MIC,M. tuberculosis 50,>32 µg/mL
same,MIC,[6],>32 µg/mL
same,MIC,M. tuberculosis V-591; S. No. 13 Mt-,>32 µg/mL
same,MIC,[7],0.25 µg/mL
same,MIC,[8],4.0 µg/mL
same,MIC,M. tuberculosis 35801,0.5 µg/mL
same,MIC,[9],0.25 µg/mL
C[C@@H]1CN(c2c(F)c(N)c3c(=O)c(C(=O)O)cn(C4CC4)c3c2F)C[C@H](C)N1 [SPAR],MIC,M. tuberculosis ATCC,≦0.125 μg/ml
same,MIC,M. avium ATCC 49601,0.5 µg/mL
same,MIC,[1],4.0 µg/mL
same,MIC,M. tuberculosis SGPGI,0.25 µg/mL
same,MIC,M. tuberculosis PC [2],2.0 µg/mL
same,MIC,[3],1.0 µg/mL
same,MIC,M. tuberculosis PC [4],≦0.125 μg/ml
same,MIC,M. tuberculosis PC 4782; S. No. 21 Mt-,≦0.125 μg/ml
same,MIC,M. tuberculosis H37Rv,≦0.125 μg/ml
same,MIC,M. tuberculosis PC [5],4.0 µg/mL
same,MIC,M. tuberculosis 50,4.0 µg/mL
same,MIC,[6],2.0 µg/mL
same,MIC,M. tuberculosis V-591; S. No. 13 Mt-,2.0 µg/mL
same,MIC,[7],2.0 µg/mL
same,MIC,[8],16 µg/mL
same,MIC,M. tuberculosis 35801,≦0.125 μg/ml
same,MIC,[9],4.0 µg/mL
